Measurements from US20210386812A1, “DEVELOPMENT OF HEALTH FOOD SUPPLEMENTS AND ANTIOXIDANTS FOR CONTROLLING HYPERURICEMIA AND OXIDATIVE STRESS” (Baylor College of Medicine, priority 2018, published 2021).
“And” between values parts separate entries of the source, which are not always exact repeats. Identical values can stand only once. “Also recorded” adds a separate entry of the source. Like-named read-outs stand apart in the source and are kept apart here.

How the values were obtained:
XO = conditions: in vitro; cited from earlier work
serum uric acid = assay: Hypouricemic effect in allantoxanamide-treated mice; format: in vivo, C57BL/6 mice; conditions: Allantoxanamide 200 mg/kg i.p., at both 1.5 hours and 3 hours; Allopurinol 13.3 mg/kg, recipe 41.7 and 83.4 mg/kg
Method: Recipe includes Japanese Thistle Extract, Grape Seed Extract, Amla Fruit Extract, Pine Bark Extract, Chinese Mint Extract and Folic acid. Mice were Intraperitoneally (i.p.)-injected with uricase inhibitor allantoxanamide to induce hyperuricemia in mice. […] Blood was taken from facial vein at 1.5 hour and 3 hour after the treatment. Serum uric acid level was measured the next day with a phosphotunstate method. N=4 per group.
Mouse experiment design, method and results. […] Folic acid solution was prepared separately by dissolving 2.6 mg folic acid in 1 ml 0.1 m potassium phosphate buffer, then 6 ul of this FA solution was added to the 10 ml extract solution.
Adult C57BL/6 mice (about 20 g body weight) were used. Four groups of mice (n=4 per group) were assigned for different treatments or controls (Table 12). Intraperitoneal (i.p.) injection of uricase inhibitor allantoxanamide can effectively block the conversion of uric acid to 5-hydroxyisourate and thus cause a marked increase in serum uric acid levels in mice, providing a hyperuricemic animal model (34). […] Blood was taken from facial vein at 1.5 hours and 3 hours after the treatment. Serum uric acid level was measured with a phosphotunstate method.

Xanthine oxidase (XO) [1] = target: T1, Xanthine oxidase (XO) (Homo sapiens, UniProt P47989); assay: Xanthine oxidase (XO) inhibition assay in a cell-free system; conditions: for XO activity inhibition (in words): increasing concentrations
T1 sequence (P47989 whole entry, species assumed): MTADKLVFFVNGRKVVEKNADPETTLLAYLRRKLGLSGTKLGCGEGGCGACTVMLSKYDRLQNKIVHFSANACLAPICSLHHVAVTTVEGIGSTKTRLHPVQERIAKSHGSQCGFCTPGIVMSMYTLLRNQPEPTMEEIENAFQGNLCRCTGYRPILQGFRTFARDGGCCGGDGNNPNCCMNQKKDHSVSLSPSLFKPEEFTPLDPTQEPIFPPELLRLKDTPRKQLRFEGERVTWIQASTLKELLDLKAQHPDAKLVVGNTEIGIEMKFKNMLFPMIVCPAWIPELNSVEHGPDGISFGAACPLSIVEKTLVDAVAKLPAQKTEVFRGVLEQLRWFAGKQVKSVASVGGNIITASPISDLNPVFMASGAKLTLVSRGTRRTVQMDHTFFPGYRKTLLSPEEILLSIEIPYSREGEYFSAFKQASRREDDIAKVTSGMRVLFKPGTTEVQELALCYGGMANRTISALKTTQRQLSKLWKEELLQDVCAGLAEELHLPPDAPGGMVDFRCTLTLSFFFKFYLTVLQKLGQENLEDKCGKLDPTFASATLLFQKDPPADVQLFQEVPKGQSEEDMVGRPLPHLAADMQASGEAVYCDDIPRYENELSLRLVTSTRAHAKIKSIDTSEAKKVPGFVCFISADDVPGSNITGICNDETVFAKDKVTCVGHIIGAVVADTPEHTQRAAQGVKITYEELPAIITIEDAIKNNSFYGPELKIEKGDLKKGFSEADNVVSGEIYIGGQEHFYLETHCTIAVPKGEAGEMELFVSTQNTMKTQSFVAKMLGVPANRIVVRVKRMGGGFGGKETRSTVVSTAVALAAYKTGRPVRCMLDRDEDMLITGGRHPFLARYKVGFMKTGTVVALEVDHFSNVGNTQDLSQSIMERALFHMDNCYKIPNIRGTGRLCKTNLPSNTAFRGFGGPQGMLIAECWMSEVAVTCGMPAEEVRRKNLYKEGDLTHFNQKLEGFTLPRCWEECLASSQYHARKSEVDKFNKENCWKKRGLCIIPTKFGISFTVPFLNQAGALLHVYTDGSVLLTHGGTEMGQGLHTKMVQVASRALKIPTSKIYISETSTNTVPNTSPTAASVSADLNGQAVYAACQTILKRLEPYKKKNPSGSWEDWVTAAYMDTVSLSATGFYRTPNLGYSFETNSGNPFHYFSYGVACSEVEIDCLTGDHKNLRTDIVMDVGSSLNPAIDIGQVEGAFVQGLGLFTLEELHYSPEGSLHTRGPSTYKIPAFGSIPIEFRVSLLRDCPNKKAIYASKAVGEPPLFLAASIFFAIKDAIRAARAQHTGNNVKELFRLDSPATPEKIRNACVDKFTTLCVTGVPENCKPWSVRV
Method: All 72 herb extracts (100 g) are in the powder form. Each extract was dissolved in water or DMSO respectively with strong votex, at stock concentration of 50 mg/ml. The solution was kept at room temperature for 30 min before centrifugation at 14k rpm. The clear solution was used for assay of XO inhibitory activity. XO activity was determined using the method of continuous spectrophotometric rate measurements (60). The reaction mixture contained xanthine in 67 mM phosphate buffer (pH 7.4) and 20 nM XO with an activity of 5 uU/mL, with or without extract solution. After pre-incubating the extract (at 0-10 ul) with XO for 1 min at 25° C., 50 uM xanthine was added to initiate the formation of uric acid, and the increase of absorption of uric acid at 295 nm was monitored in a dynamic mode. Initial rate of XO activity was recorded. […] For initial screen of herb extracts, final concentration of each extract was 163 ug/ml. Percentage of inhibition is calculated: Percentage of inhibition=(1−test OD/blank OD)×100
XO inhibition assay for folic acid related molecules is similar to that for herb extracts. Folic acids were dissolved in DMSO. Dose-dependent of folic acids and photolysis effect were studied.
Furthermore, we performed a dose dependent XO inhibition assay for each of these 14 extracts (DMSO-soluble fractions). […] IC50 is an operational parameter defined as the concentration of inhibitor required for achieving 50% inhibition of the enzyme.
Folic acid and its two derivatives, dihydrofolic acid and tetrahydrofolic acid, were employed in the XO inhibition assay. When 20 nM XO was mixed with increasing concentrations of folic acid, dihydrofolic acid and tetrahydrofolic acid.
The initial rate of uric acid formation in the reaction system was recorded; and XO inhibition rate of each herb extract was calculated.
Furthermore, a dose dependent XO inhibition assay was performed for each of these 15 extracts. […] IC50 is an operational parameter defined as the concentration of inhibitor required for achieving 50% inhibition of the enzyme.

[2] = cited from earlier work
Xanthine oxidase (XO) [3] = target: T1, Xanthine oxidase (XO); assay: XO inhibition combination assay of herb extract with folic acid or 5-MTHF, added separately without pre-mixing; conditions: read-out: XO activity inhibition
Method: All 14 traditional Chinese medicine herb extracts were tested. Folic acid (0.167 uM) and extract (13.3 ug/ml) were separately added into the XO reaction system without pre-mixing. XO activity was measured.
Fresh prepared 5-MTHF (3.3 uM) and herb extract (13.3 ug/ml) was added to XO reaction system separately, XO activity was recorded.
Eight herbal extracts were selected and tested. Folic acid (0.167 uM) and each extract at a defined concentration (ug/ml) were separately added into the XO reaction system without pre-mixing. XO activity was measured.
Based on the result of dose-dependent XO inhibition experiments for herb extracts and folic acid, a relatively small concentration of each extract (a total of 14 extracts) and folic acid were utilized for a combination assay.
Folic acid (0.167 uM) and extract (13.3 ug/ml) were separately added into the XO reaction system without pre-mixing. XO activity was measured.
The inventors also tested the combination of 5-MTHF with different traditional Chinese medicine herb extracts for their effect on XO activity in vitro (FIG. 10).
Based on the result of dose-dependent XO inhibition experiments for herb extracts and folic acid, a relatively small concentration of each of 8 herbal extracts and folic acid were selected for a combination assay. […] XO activity was measured (FIG. 13).

Compound | XO inhibitory effect (literature) (XO) | XO inhibitory potency relative to a comparator (in words) (Xanthine oxidase (XO) [1]; cell-free system) | XO activity inhibition (in words) (Xanthine oxidase (XO) [1]; 20 nM XO) | also measured
Nc1nc2ncc(C=O)nc2c(=O)[nH]1 [6-formyl pterin] | very potent XO inhibitor | – | – | –
Oc1ncnc2[nH]ncc12 [Allopurinol] | – | – | – | Serum uric acid levels (serum uric acid): significantly reduced serum uric acid levels
O=Cc1cc(O)c(O)c([N+](=O)[O-])c1 [DHNB, 3,4-Dihydroxy-5-nitrobenzaldehyde] | – | – | – | IC50 (Xanthine oxidase (XO) [1]): 3 µM
CN1c2c(nc(N)[nH]c2=O)NCC1CNc1ccc(C(=O)N[C@@H](CCC(=O)O)C(=O)O)cc1 (stereo partly drawn) [Extract 5-MTHF, 5-methyl tetrahydrofolate] | – | weaker than folic acid | effectively inhibited XO activity; also recorded: inhibited XO activities in a concentration-dependent manner | IC50 (Xanthine oxidase (XO) [1]; read-out: IC50 for XO inhibition, 20 nM XO, cell-free system): ~35.6 µM and 35.6 µM
Nc1nc2c(c(=O)[nH]1)N=C(CNc1ccc(C(=O)N[C@@H](CCC(=O)O)C(=O)O)cc1)CN2 [dihydrofolic acid] | stronger than that of folic acid | dihydrofolic acid>tetrahydrofolic>folic acid | significantly inhibited XO activity | XO inhibitory potency relative to a comparator (in words) (Xanthine oxidase (XO) [1]; cell-free system, listed as Dihydrofolic acid): more potent than folic acid
Cc1nc(-c2ccc(OCC(C)C)c(C#N)c2)sc1C(=O)O [febuxostat] | – | – | – | Patients with transaminase elevations greater than three times the upper limit of normal ([2]; in some studies): 2-3%; Patients with cutaneous adverse effects ([2]; initial clinical studies): about 2%
Nc1nc2ncc(CNc3ccc(C(=O)N[C@@H](CCC(=O)O)C(=O)O)cc3)nc2c(=O)[nH]1 [folic acid] | – | stronger than Allopurinol and DHNB | significantly inhibited XO activity | IC50 (Xanthine oxidase (XO) [1]): 0.75 µM; inhibition at 0.167 µM (Xanthine oxidase (XO) [3]): 16.5%
Nc1nc2ncc(C(=O)O)nc2c(=O)[nH]1 [pterin-6-carboxylic acid] | no XO inhibitory effect | – | – | –
Nc1nc2c(c(=O)[nH]1)NC(CNc1ccc(C(=O)N[C@@H](CCC(=O)O)C(=O)O)cc1)CN2 (stereo partly drawn) [tetrahydrofolic acid] | stronger than that of folic acid | more potent than folic acid | significantly inhibited XO activity | XO inhibitory potency relative to a comparator (in words) (Xanthine oxidase (XO) [1]; cell-free system, listed as tetrahydrofolic): dihydrofolic acid>tetrahydrofolic>folic acid
